Reference: US12570662B2, “Substituted pyrrolo[1,2-b]pyridazines as bifunctional degraders of interleukin-1 receptor-associated kinases” (Nurix Therapeutics, Inc., priority 2021, dated 2026)

Target: T1, IRAK4 (Homo sapiens, UniProt Q9NWZ3)
T1 construct: C-terminal HiBiT-tagged Jurkat cells (polyclonal cell line or clone 8D5); endogenous in cells; host or cells: Jurkat cells (polyclonal cell line or clone 8D5), HiBiT-tagged
T1 sequence (Q9NWZ3 1-460): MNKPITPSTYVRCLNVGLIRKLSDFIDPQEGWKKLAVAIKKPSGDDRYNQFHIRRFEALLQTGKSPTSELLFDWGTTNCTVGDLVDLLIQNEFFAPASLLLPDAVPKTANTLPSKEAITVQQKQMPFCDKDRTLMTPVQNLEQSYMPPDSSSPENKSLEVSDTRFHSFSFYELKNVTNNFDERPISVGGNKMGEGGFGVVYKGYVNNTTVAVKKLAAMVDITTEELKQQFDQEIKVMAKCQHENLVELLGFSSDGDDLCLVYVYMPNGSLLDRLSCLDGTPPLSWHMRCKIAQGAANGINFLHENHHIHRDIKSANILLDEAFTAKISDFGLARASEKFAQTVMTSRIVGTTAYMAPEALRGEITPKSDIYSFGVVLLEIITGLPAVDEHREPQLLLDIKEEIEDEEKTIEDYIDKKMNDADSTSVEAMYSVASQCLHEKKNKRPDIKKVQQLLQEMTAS
Assay: IRAK4 Degradation HiBit Assay
Type: cell-based
Conditions: C-terminal HiBiT-tagged Jurkat cells, 4 hrs incubation; for DC50: % IRAK4 remaining, four-parameter fit (IC50 used as DC50); for Dmax: from fit of % IRAK4 remaining, read-out: Dmax
Outline: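 Jurkat cells carrying C-terminal HiBiT-tagged IRAK4 (polyclonal or clone 8D5) exposed to compound, 10 μM–0.1 nM final over 11 points, for 4 h at 32 °C. Remaining IRAK4 measured by lytic HiBiT/LgBiT luminescence relative to DMSO. DC50 and Dmax taken from four-parameter variable-slope fits.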

Question: For `CCNc1cc(-c2ccc3cc(C#N)cnn23)ncc1-c1nnc(N2CCN(CC3CCN(c4ccc(C5CCC(=O)NC5=O)cn4)CC3)CC2)s1` (racemic) [Example 68, rac-7-[5-(5-{4-[(1-{5-[(3R)-2,6-dioxopiperidin-3-yl]pyridin-2-yl}piperidin-4-yl)methyl]piperazin-1-yl}-1,3,4-thiadiazol-2-yl)-4-(ethylamino)pyridin-2-yl]pyrrolo[1,2-b]pyridazine-3-carbonitrile], which DC50 is on record?
Answer: 187 nM

Question: What about the Dmax of the same molecule?
Answer: 103%

Question: `CCNc1cc(-c2ccc3cc(C#N)cnn23)ncc1-c1nnc(N2CCN(CC3CCN(c4ccc(C5CCC(=O)NC5=O)cn4)CC3)CC2)o1` (racemic) [Example 69, rac-7-[5-(5-{4-[(1-{5-[(3R)-2,6-dioxopiperidin-3-yl]pyridin-2-yl}piperidin-4-yl)methyl]piperazin-1-yl}-1,3,4-oxadiazol-2-yl)-4-(ethylamino)pyridin-2-yl]pyrrolo[1,2-b]pyridazine-3-carbonitrile] was tested. Which DC50 did it give?
Answer: 1000 nM

Question: What about the Dmax of the same molecule?
Answer: 84%

Question: `CCNc1cc(-c2ccc3cc(C#N)cnn23)ncc1-c1nnc(N2CCN(CC3CCN(c4ccc(C5CCC(=O)NC5=O)cc4)CC3)CC2)s1` (racemic) [Example 70, rac-7-[5-(5-{4-[(1-{4-[(3R)-2,6-dioxopiperidin-3-yl]phenyl}piperidin-4-yl)methyl]piperazin-1-yl}-1,3,4-thiadiazol-2-yl)-4-(ethylamino)pyridin-2-yl]pyrrolo[1,2-b]pyridazine-3-carbonitrile] was tested. Which DC50 did it give?
Answer: 42 nM

Question: And the Dmax?
Answer: 112%

Question: Which results are given for `CC(C)Nc1cc(-c2ccc3cc(C#N)cnn23)ncc1-c1nnc(N2CC3CCC(C2)N3CC2CCN(c3ccc([C@H]4CCC(=O)NC4=O)cc3)CC2)s1` (racemic) [Example 72, rac-7-[5-(5-{8-[(1-{4-[(3R)-2,6-dioxopiperidin-3-yl]phenyl}piperidin-4-yl)methyl]-3,8-diazabicyclo[3.2.1]octan-3-yl}-1,3,4-thiadiazol-2-yl)-4-[(propan-2-yl)amino]pyridin-2-yl]pyrrolo[1,2-b]pyridazine-3-carbonitrile]?
Answer: DC50: 45 nM; Dmax: 60%

Question: Which results are given for `N#Cc1cnn2c(-c3cc(NC4CCOCC4)c(-c4nnc(N5CCN(C6CC7(CCN(c8ccc(C9CCC(=O)NC9=O)cn8)CC7)C6)CC5)s4)cn3)ccc2c1` (racemic) [Example 74, rac-7-(5-{5-[4-(7-{5-[(3R)-2,6-dioxopiperidin-3-yl]pyridin-2-yl}-7-azaspiro[3.5]nonan-2-yl)piperazin-1-yl]-1,3,4-thiadiazol-2-yl}-4-[(oxan-4-yl)amino]pyridin-2-yl)pyrrolo[1,2-b]pyridazine-3-carbonitrile]?
Answer: DC50: 23 nM; Dmax: 71%

Question: Which results are given for `C[C@H](C#N)Nc1cc(-c2ccc3cc(C#N)cnn23)ncc1-c1nnc(N2CCN(CC3CCN(c4ccc(C5CCC(=O)NC5=O)cn4)CC3)CC2)s1` (mixture of isomers) [Example 75, 7-(4-{[(1R)-1-cyanoethyl]amino}-5-(5-{4-[(1-{5-[(3RS)-2,6-dioxopiperidin-3-yl]pyridin-2-yl}piperidin-4-yl)methyl]piperazin-1-yl}-1,3,4-thiadiazol-2-yl)pyridin-2-yl)pyrrolo[1,2-b]pyridazine-3-carbonitrile]?
Answer: DC50: 9 nM; Dmax: 111%

Question: Which results are given for `CC1(Nc2cc(-c3ccc4cc(C#N)cnn34)ncc2-c2nnc(N3CCN(CC4CCN(c5ccc(C6CCC(=O)NC6=O)cc5)CC4)CC3)s2)COC1` (racemic) [Example 76, rac-7-[5-(5-{4-[(1-{4-[(3R)-2,6-dioxopiperidin-3-yl]phenyl}piperidin-4-yl)methyl]piperazin-1-yl}-1,3,4-thiadiazol-2-yl)-4-[(3-methyloxetan-3-yl)amino]pyridin-2-yl]pyrrolo[1,2-b]pyridazine-3-carbonitrile]?
Answer: DC50: 23 nM; Dmax: 111%

Question: How did the DC50 turn out when `N#Cc1cnn2c(-c3cc(NC4CC4)c(-c4nnc(N5CCN(CC6CCN(c7ccc(C8CCC(=O)NC8=O)cc7)CC6)CC5)s4)cn3)ccc2c1` (racemic) [Example 77, rac-7-[4-(cyclopropylamino)-5-(5-{4-[(1-{4-[(3R)-2,6-dioxopiperidin-3-yl]phenyl}piperidin-4-yl)methyl]piperazin-1-yl}-1,3,4-thiadiazol-2-yl)pyridin-2-yl]pyrrolo[1,2-b]pyridazine-3-carbonitrile] was run?
Answer: 53 nM

Question: And the Dmax?
Answer: 90%

Question: What does the source list for `CNc1cc(-c2ccc3cc(C#N)cnn23)ncc1-c1nnc(N2CCN(CC3CCN(c4ccc(C5CCC(=O)NC5=O)cc4)CC3)CC2)s1` (racemic) [Example 79, rac-7-[5-(5-{4-[(1-{4-[(3R)-2,6-dioxopiperidin-3-yl]phenyl}piperidin-4-yl)methyl]piperazin-1-yl}-1,3,4-thiadiazol-2-yl)-4-(methylamino)pyridin-2-yl]pyrrolo[1,2-b]pyridazine-3-carbonitrile]?
Answer: DC50: 21 nM; Dmax: 115%

Question: With `CNc1cc(-c2ccc3cc(C#N)cnn23)ncc1-c1nnc(C2CCN(CC3CCN(c4ccc(C5CCC(=O)NC5=O)cn4)CC3)CC2)s1` (racemic) [Example 81, rac-7-[5-(5-{1-[(1-{5-[(3R)-2,6-dioxopiperidin-3-yl]pyridin-2-yl}piperidin-4-yl)methyl]piperidin-4-yl}-1,3,4-thiadiazol-2-yl)-4-(methylamino)pyridin-2-yl]pyrrolo[1,2-b]pyridazine-3-carbonitrile] as the molecule, how does the DC50 read?
Answer: 10 nM

Question: What about the Dmax of the same molecule?
Answer: 116%

Question: How did the DC50 turn out when `CN(CC1CCN(c2ccc([C@@H]3CCC(=O)NC3=O)cn2)CC1)[C@H]1CC[C@H](c2nnc(-c3cnc(-c4ccc5cc(C#N)cnn45)cc3NC3CCOCC3)s2)CC1` (racemic) [Example 82, 7-{4-[(oxan-4-yl)amino]-5-{5-[(1r,4r)-4-{[(1-{5-[(3RS)-2,6-dioxopiperidin-3-yl]pyridin-2-yl}piperidin-4-yl)methyl](methyl)amino}cyclohexyl]-1,3,4-thiadiazol-2-yl}pyridin-2-yl}pyrrolo[1,2-b]pyridazine-3-carbonitrile] was run?
Answer: 8 nM

Question: What about the Dmax of the same molecule?
Answer: 114%

Question: Which results are given for `N#Cc1cnn2c(-c3cc(NC4CCOCC4)c(-c4nnc(N5CC6CCC(C5)N6CC5CCN(c6ccc([C@H]7CCC(=O)NC7=O)cc6)CC5)s4)cn3)ccc2c1` (racemic) [Example 85, rac-7-[5-(5-{8-[(1-{4-[(3R)-2,6-dioxopiperidin-3-yl]phenyl}piperidin-4-yl)methyl]-3,8-diazabicyclo[3.2.1]octan-3-yl}-1,3,4-thiadiazol-2-yl)-4-[(oxan-4-yl)amino]pyridin-2-yl]pyrrolo[1,2-b]pyridazine-3-carbonitrile]?
Answer: DC50: 25 nM; Dmax: 73%

Question: With `N#Cc1cnn2c(-c3cc(N[C@H]4CCOC4)c(-c4nnc(N5CC6CCC(C5)N6CC5CCN(c6ccc(C7CCC(=O)NC7=O)cn6)CC5)s4)cn3)ccc2c1` (mixture of isomers) [Example 87, 7-[5-(5-{8-[(1-{5-[(3RS)-2,6-dioxopiperidin-3-yl]pyridin-2-yl}piperidin-4-yl)methyl]-3,8-diazabicyclo[3.2.1]octan-3-yl}-1,3,4-thiadiazol-2-yl)-4-{[(3S)-oxolan-3-yl]amino}pyridin-2-yl]pyrrolo[1,2-b]pyridazine-3-carbonitrile] as the molecule, how does the DC50 read?
Answer: 47 nM

Question: And the Dmax?
Answer: 61%
